Reference: ChEMBL document CHEMBL5321281, “Synthesis and Biological Evaluation of Heterocyclic Ring-Fused 20(S)-Protopanaxadiol Derivatives as Potent Antiosteoporosis Agents” (J Med Chem, 2023)
Activity calls are given as the source filed them. The calls are words filed in the database; no cut-off is given here.

Legend:
MC3T3-E1 = experiment: Induction of osteoblastogenesis in beta-glycerophosphate and vitamin C stimulated mouse MC3T3-E1 cells assessed as increase in ALP activity at 0.1 uM incubated for 7 days by ALP staining based microscopic analysis; assay type: functional, cell-based; details: time 7.0 day
BMMC [1] = experiment: Anti-osteoclastogenic activity in C57/BL6 mouse BMMC cells assessed as inhibition of RANKL-induced osteoclast differentiation at 0.01 uM incubated for 5 to 7 days in presence of M-CSF by TRAP staining based microscopic analysis relative to control; assay type: functional; details: time 5-7 day
[2] = AUC (0 to infinity) in ICR mouse at 10 mg/kg, po and measured upto 24 hrs by LC-MS/MS analysis; assay type: ADME, organism-based; parameters: dose 10 mg/kg, time < 24 hrs, route po; details: in vivo
BMMC [3] = experiment: Cytotoxicity against C57/BL6 mouse BMMC cells assessed as reduction in cell viability at 10 uM incubated for 24 hrs by CCK-8 assay; assay type: toxicity, cell-based
[4] = Half life in ICR mouse at 1 mg/kg, iv and measured upto 24 hrs by LC-MS/MS analysis; assay type: ADME, organism-based; details: in vivo
[5] = Microsomal stability in mouse liver microsomes assessed as parent compound remaining at 1 uM and measured after 60 mins by LC-MS/ MS analysis; assay type: ADME, Microsome; details: read-out: Stability
Mus musculus [6] = experiment: Protective effect in ovariectomy induced osteoporosis C57BL/6 mouse model assessed as increase in bone surface/tissue volume (BS/TV) in RIO of femur at 1 to 3 mg/kg, ip and measured after 6 weeks by micro-CT analysis; assay type: functional, organism-based; details: dose 1-3 mg/kg
BMMC [7] = experiment: Anti-osteoclastogenic activity in C57/BL6 mouse BMMC cells assessed as inhibition of RANKL-induced osteoclast differentiation at 0.01 to 5 uM incubated for 5 to 7 days in presence of M-CSF by TRAP staining based microscopic analysis relative to control; assay type: functional, cell-based; details: dose 0.01-5 µM, time 5-7 day
Mus musculus [8] = experiment: Protective effect in ovariectomy induced osteoporosis C57BL/6 mouse model assessed as increase in bone volume/tissue volume (BV/TV) in RIO of femur at 3 mg/kg, ip and measured after 6 weeks by micro-CT analysis; assay type: functional
BMMC [9] = experiment: Anti-osteoclastogenic activity in C57/BL6 mouse BMMC cells assessed as reduction in RANKL-induced MMP-9 protein expression level at 0.1 uM incubated for 1 to 3 days in presence of M-CSF by Western blot anlaysis; assay type: functional, cell-based; details: time 1-3 day
[10] = Tmax in ICR mouse at 10 mg/kg, po and measured upto 24 hrs by LC-MS/MS analysis; assay type: ADME, organism-based; details: in vivo
[11] = Half life in ICR mouse at 10 mg/kg, po and measured upto 24 hrs by LC-MS/MS analysis; assay type: ADME, organism-based; details: in vivo
BMMC [12] = experiment: Anti-osteoclastogenic activity in C57/BL6 mouse BMMC cells assessed as inhibition of RANKL-stimulated osteoclastogenesis at 1 uM and compound added at day 5 to 7 (late stage) and measured after 3 days in presence of M-CSF by TRAP staining based microscopic analysis relative to control; assay type: functional; details: 72 h, time 3 day
[13] = AUC (0 to infinity) in ICR mouse at 1 mg/kg, iv and measured upto 24 hrs by LC-MS/MS analysis; assay type: ADME, organism-based; parameters: dose 1 mg/kg, time < 24 hrs, route iv; details: in vivo
BMMC [14] = experiment: Anti-osteoclastogenic activity in C57/BL6 mouse BMMC cells assessed as inhibition of RANKL-induced osteoclast differentiation by observing number of TRAP-positive multinucleated cells at 1 uM and compound added at different times and measured after 7 days in presence of M-CSF by TRAP staining based microscopic analysis relative to control; assay type: functional, cell-based; details: time 7.0 day, TDE = time-dependent effect
BMMC [15] = experiment: Anti-osteoclastogenic activity in C57/BL6 mouse BMMC cells assessed as reduction in RANKL-induced TRAP protein expression level at 0.1 uM incubated for 1 to 3 days in presence of M-CSF by Western blot anlaysis; assay type: functional, cell-based; details: time 1-3 day
[16] = Cmax in ICR mouse at 10 mg/kg, po and measured upto 24 hrs by LC-MS/MS analysis; assay type: ADME, organism-based; parameters: dose 10 mg/kg, time < 24 hrs, route po; details: in vivo
[17] = Cmax in ICR mouse at 1 mg/kg, iv and measured upto 24 hrs by LC-MS/MS analysis; assay type: ADME, organism-based; parameters: dose 1 mg/kg, time < 24 hrs, route iv; details: in vivo
BMMC [18] = experiment: Anti-osteoclastogenic activity in C57/BL6 mouse BMMC cells assessed as inhibition of RANKL-stimulated osteoclastogenesis at 1 uM and compound added at day 3 to 5 (mid stage) and measured after 5 days in presence of M-CSF by TRAP staining based microscopic analysis relative to control; assay type: functional; details: 120 h, time 5 day
BMMC [19] = experiment: Anti-osteoclastogenic activity in C57/BL6 mouse BMMC cells assessed as reduction in RANKL-induced CTSK protein expression level at 0.1 uM incubated for 1 to 3 days in presence of M-CSF by Western blot anlaysis; assay type: functional, cell-based; details: time 1-3 day
BMMC [20] = experiment: Anti-osteoclastogenic activity in C57/BL6 mouse BMMC cells assessed as inhibition of RANKL-induced osteoclast differentiation by measuring number of TRAP-positive multinucleated cells at 0.01 to 5 uM incubated for 5 to 7 days in presence of M-CSF by TRAP staining based microscopic analysis relative to control; assay type: functional, cell-based; details: dose 0.01-5 µM, time 5-7 day
BMMC [21] = experiment: Anti-osteoclastogenic activity in C57/BL6 mouse BMMC cells assessed as reduction in RANKL-induced TRAP mRNA expression level at 0.1 uM incubated for 1 to 5 days in presence of M-CSF by qRT-PCR analysis; assay type: functional, cell-based; details: time 1-5 day, TDE = time-dependent effect
Mus musculus [22] = experiment: Protective effect in ovariectomy induced osteoporosis C57BL/6 mouse model assessed as increase in bone volume/tissue volume (BV/TV) in RIO of femur at 1 mg/kg, ip and measured after 6 weeks by micro-CT analysis; assay type: functional
BMMC [23] = experiment: Anti-osteoclastogenic activity in C57/BL6 mouse BMMC cells assessed as inhibition of RANKL-induced osteoclast differentiation at 0.1 uM incubated for 5 to 7 days in presence of M-CSF by TRAP staining based microscopic analysis relative to control; assay type: functional; details: time 5-7 day
[24] = Tmax in ICR mouse at 1 mg/kg, iv and measured upto 24 hrs by LC-MS/MS analysis; assay type: ADME, organism-based; details: in vivo
[25] = Toxicity in ovariectomy induced osteoporosis C57BL/6 mouse model assessed as body weight change at 1 to 3 mg/kg, ip and measured for 6 weeks; assay type: organism-based; details: in vivo, 1008 h, dose 1-3 mg/kg
BMMC [26] = experiment: Anti-osteoclastogenic activity in C57/BL6 mouse BMMC cells assessed as inhibition of RANKL-stimulated osteoclastogenesis at 1 uM and compound added at day 1 to 3 (early stage) and measured after 7 days in presence of M-CSF by TRAP staining based microscopic analysis relative to control; assay type: functional; details: 168 h, time 7 day
Mus musculus [27] = experiment: Protective effect in ovariectomy induced osteoporosis C57BL/6 mouse model assessed as increase in trabecular bone number (Tb.N) in RIO of femur at 1 to 3 mg/kg, ip and measured after 6 weeks by micro-CT analysis; assay type: functional, organism-based; details: dose 1-3 mg/kg
[28] = Microsomal stability in mouse liver microsomes assessed as half life at 1 uM and measured upto 60 mins by LC-MS/ MS analysis; assay type: ADME, Microsome
Mus musculus [29] = experiment: Protective effect in ovariectomy induced osteoporosis C57BL/6 mouse model assessed as increase in trabecular separation (Tb.Sp) in RIO of femur at 1 to 3 mg/kg, ip and measured after 6 weeks by micro-CT analysis; assay type: functional, organism-based; details: dose 1-3 mg/kg

With `C=C(CCC=C(C)C)[C@H]1CC[C@]2(C)[C@@H]1[C@H](O)C[C@@H]1[C@@]3(C)Cc4cnc(C)nc4C(C)(C)[C@@H]3CC[C@]12C` the Activity (MC3T3-E1) was “Active”, the inhibition at 0.01 µM (BMMC [1]) was 44.4% and the AUC(0-inf) [2] was 1230 ng·h/mL. For the same compound, the Activity (BMMC [3]) was “>= 100%”, the half-life [4] was 20.2 min and the remaining at 1 h, 1 µM [5] was 31%. For the same compound, the Activity (Mus musculus [6]) was “Active”, the inhibition (BMMC [7]) was “Dose-Dependent Effect” and the Activity (Mus musculus [8]) was 23.2%. For the same compound, the Activity (BMMC [9]) was “Active”, the Tmax [10] was 60 min and the half-life [11] was 61.8 min. The inhibition at 1 µM (BMMC [12]) was 62.3%, the AUC(0-inf) [13] was 1170 ng·h/mL and the inhibition (BMMC [14]) was “Tde”. The Activity (BMMC [15]) was “Active”, the Cmax [16] was 823 ng/mL and the Cmax [17] was 4180 ng/mL. The inhibition at 1 µM (BMMC [18]) was 94.4%, the Activity (BMMC [19]) was “Active” and the inhibition (BMMC [20]) was “Dose-Dependent Effect”. For the same compound, the Activity (BMMC [21]) was “Tde”, the Activity (Mus musculus [22]) was 5.6% and the inhibition at 0.1 µM (BMMC [23]) was 100%. For the same compound, the Tmax [24] was 4.8 min, the Activity [25] was “Non-Toxic” and the inhibition at 1 µM (BMMC [26]) was 98.8%. For the same compound, the Activity (Mus musculus [27]) was “Active”, the half-life at 1 µM [28] was 37.1 min and the Activity (Mus musculus [29]) was “Active”.
